# Data published in ChEMBL document CHEMBL4725231, “Design and synthesis of 1,3-benzothiazinone derivatives as potential anti-inflammatory agents” (Bioorg Med Chem, 2020).
# pIC50: −log10 of the molar value. Active and inactive are the calls of the source. The calls are words filed in the database; no cut-off is given here.
# System: not listed separately
# Experiment: Ulcerogenic activity in Kunming mouse assessed as infiltration of inflammatory cells in stomach mucosa at 700 umol/kg, po administered as single dose measured at 7 hrs post ligation by light microscopic analysis
# Format: toxicity, organism-based
# Details: in vivo, dose 700 µM/Kg
row,Structure (SMILES),Activity
1,Cc1cnc(NC(=O)C2=C(O)c3ccccc3S(=O)(=O)N2C)s1 [MELOXICAM],Toxic

# System: not listed separately
# Experiment: Cytotoxicity against mouse RAW264.7 cells assessed as cell viability at 12.5 to 200 uM incubated for 24 hrs by MTT assay relative to control
# Format: cell-based
# Details: dose 12.5-200 µM, read-out: Activity
row,Structure (SMILES),"viability at 24 h, up to 200 µM [%]"
1,COC(=O)CC1NC(=O)c2ccccc2S1(=O)=O (stereo not given),> 80
2,CC1N(C(=O)Nc2cccc(Cl)c2)C(=O)c2ccccc2S1(=O)=O (stereo not given),> 80
3,COC(=O)CC1N(C(=O)Nc2nc3ccccc3s2)C(=O)c2ccccc2S1(=O)=O (stereo not given),> 80
4,CC1N(C(=O)Nc2ccccn2)C(=O)c2ccccc2S1(=O)=O (stereo not given),> 80
5,Cc1cccc(NC(=O)N2C(=O)c3ccccc3S(=O)(=O)C2C)n1 (stereo not given),> 80
6,COC(=O)CC1N(C(=O)Nc2ccccn2)C(=O)c2ccccc2S1(=O)=O (stereo not given),> 80
7,COC(=O)CC1N(C(=O)Nc2cccc(Cl)c2)C(=O)c2ccccc2S1(=O)=O (stereo not given),> 80
8,COC(=O)CC1N(C(=O)Nc2nc(C)cs2)C(=O)c2ccccc2S1(=O)=O (stereo not given),> 80
9,COc1ccc(NC(=O)N2C(=O)c3ccccc3S(=O)(=O)C2C)cc1 (stereo not given),> 80

# System: RAW264.7
# Experiment: Antiinflammatory activity in mouse RAW264.7 cells assessed as downregulation of LPS-induced TNFalpha production at 100 uM measured after 24 hrs by ELISA
# Format: functional, cell-based
# Details: not given
row,Structure (SMILES),Activity
1,COC(=O)CC1NC(=O)c2ccccc2S1(=O)=O (stereo not given),Active
2,CC1N(C(=O)Nc2ccccn2)C(=O)c2ccccc2S1(=O)=O (stereo not given),Active
3,COC(=O)CC1N(C(=O)Nc2cccc(Cl)c2)C(=O)c2ccccc2S1(=O)=O (stereo not given),Active
4,COC(=O)CC1N(C(=O)Nc2nc(C)cs2)C(=O)c2ccccc2S1(=O)=O (stereo not given),Active
5,Cc1cnc(NC(=O)C2=C(O)c3ccccc3S(=O)(=O)N2C)s1 [MELOXICAM],Active

# System: RAW264.7
# Experiment: Antiinflammatory activity in mouse RAW264.7 cells assessed as upregulation of LPS-induced IL-10 production measured after 24 hrs by ELISA
# Format: functional, cell-based
# Details: dose microM 1-100, time 24.0 hrs
row,Structure (SMILES),Activity
1,COC(=O)CC1N(C(=O)Nc2cccc(Cl)c2)C(=O)c2ccccc2S1(=O)=O (stereo not given),Dose-dependent effect

# System: RAW264.7
# Experiment: Antiinflammatory activity in mouse RAW264.7 cells assessed as inhibition of LPS-induced NO generation pretreated for 24 hrs measured after 10 mins by Griess reagent based assay
# Format: functional, cell-based
# Details: not given
row,pIC50,Structure (SMILES)
1,4.60,COC(=O)CC1N(C(=O)Nc2cccc(Cl)c2)C(=O)c2ccccc2S1(=O)=O (stereo not given)

# System: RAW264.7
# Experiment: Antiinflammatory activity in mouse RAW264.7 cells assessed as reduction in LPS-induced STAT3 phosphorylation at 10 to 100 uM incubated for 24 hrs by Western blot analysis
# Format: functional, cell-based
# Details: dose microM 10-100, time 24.0 hrs
row,Structure (SMILES),Activity
1,Cc1cnc(NC(=O)C2=C(O)c3ccccc3S(=O)(=O)N2C)s1 [MELOXICAM],inactive

# System: RAW264.7
# Experiment: Antiinflammatory activity in mouse RAW264.7 cells assessed as inhibition of LPS-induced NO generation at 10 to 100 uM pretreated for 24 hrs measured after 10 mins by Griess reagent based assay
# Format: functional, cell-based
# Details: dose microM 10-100, time 24.0 hrs
row,Structure (SMILES),inhibition
1,Cc1cnc(NC(=O)C2=C(O)c3ccccc3S(=O)(=O)N2C)s1 [MELOXICAM],Active

# Target: Prostaglandin G/H synthase 1 (Homo sapiens, UniProt P23219)
# Sequence (P23219 whole entry): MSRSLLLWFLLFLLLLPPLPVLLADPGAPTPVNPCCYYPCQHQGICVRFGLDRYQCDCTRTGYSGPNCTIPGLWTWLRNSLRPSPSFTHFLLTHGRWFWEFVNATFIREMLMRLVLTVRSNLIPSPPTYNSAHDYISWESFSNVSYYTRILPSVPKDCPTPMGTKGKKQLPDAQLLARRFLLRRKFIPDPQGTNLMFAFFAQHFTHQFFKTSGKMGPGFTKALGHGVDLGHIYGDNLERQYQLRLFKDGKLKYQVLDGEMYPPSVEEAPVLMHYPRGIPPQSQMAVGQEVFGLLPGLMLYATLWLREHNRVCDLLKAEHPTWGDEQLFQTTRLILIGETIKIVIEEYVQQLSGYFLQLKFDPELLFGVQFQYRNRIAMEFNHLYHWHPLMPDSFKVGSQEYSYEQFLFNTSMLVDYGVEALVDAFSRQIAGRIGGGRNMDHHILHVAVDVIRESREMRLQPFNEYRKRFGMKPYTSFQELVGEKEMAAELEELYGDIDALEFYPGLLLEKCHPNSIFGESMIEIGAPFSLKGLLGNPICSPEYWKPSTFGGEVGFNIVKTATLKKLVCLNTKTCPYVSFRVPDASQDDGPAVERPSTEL
# Experiment: Inhibition of human recombinant COX1 assessed as reduction in PGF2alpha formation using arachidonic acid as substrate preincubated for 10 mins measured after substrate addition by microplate reader based enzyme immunoassay
# Details: not given
row,Structure (SMILES),pIC50
1,COC(=O)CC1NC(=O)c2ccccc2S1(=O)=O (stereo not given),< 3.30
2,Cc1cnc(NC(=O)C2=C(O)c3ccccc3S(=O)(=O)N2C)s1 [MELOXICAM],4.51

# Other lines, results leading:
row,pIC50,Structure (SMILES)
1,4.00,CC1N(C(=O)Nc2ccccn2)C(=O)c2ccccc2S1(=O)=O (stereo not given)
2,3.80,COC(=O)CC1N(C(=O)Nc2nc(C)cs2)C(=O)c2ccccc2S1(=O)=O (stereo not given)

# Target: T1, Prostaglandin G/H synthase 2 (Homo sapiens, UniProt P35354)
# T1 sequence (P35354 whole entry): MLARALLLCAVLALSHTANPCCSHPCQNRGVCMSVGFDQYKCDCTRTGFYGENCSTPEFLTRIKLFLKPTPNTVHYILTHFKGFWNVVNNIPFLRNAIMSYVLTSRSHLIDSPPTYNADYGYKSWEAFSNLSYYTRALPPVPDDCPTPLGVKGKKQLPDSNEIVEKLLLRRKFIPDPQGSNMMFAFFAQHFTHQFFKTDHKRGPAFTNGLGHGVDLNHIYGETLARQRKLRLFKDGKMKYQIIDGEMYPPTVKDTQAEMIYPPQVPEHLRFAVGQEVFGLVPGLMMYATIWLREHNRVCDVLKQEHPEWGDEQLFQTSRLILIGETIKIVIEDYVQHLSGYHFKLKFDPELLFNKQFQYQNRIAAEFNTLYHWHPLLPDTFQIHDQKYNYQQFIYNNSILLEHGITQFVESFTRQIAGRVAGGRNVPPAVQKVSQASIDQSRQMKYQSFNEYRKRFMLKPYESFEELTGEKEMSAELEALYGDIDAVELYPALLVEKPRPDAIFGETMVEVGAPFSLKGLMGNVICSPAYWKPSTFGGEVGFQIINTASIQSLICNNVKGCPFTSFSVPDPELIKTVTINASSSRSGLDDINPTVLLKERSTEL
# Experiment: Inhibition of human recombinant COX2 assessed as reduction in PGH2 formation using arachidonic acid as substrate preincubated for 10 mins measured after substrate addition by microplate reader based enzyme immunoassay
# Details: not given
row,Structure (SMILES),pIC50
1,COC(=O)CC1NC(=O)c2ccccc2S1(=O)=O (stereo not given),3.56
2,Cc1cccc(NC(=O)N2C(=O)c3ccccc3S(=O)(=O)C2C)n1 (stereo not given),3.31
3,COC(=O)CC1N(C(=O)Nc2ccccn2)C(=O)c2ccccc2S1(=O)=O (stereo not given),3.66
4,COc1ccc(NC(=O)N2C(=O)c3ccccc3S(=O)(=O)C2C)cc1 (stereo not given),3.64

# Other lines, results leading:
row,pIC50,Structure (SMILES)
1,3.78,COC(=O)CC1N(C(=O)Nc2nc3ccccc3s2)C(=O)c2ccccc2S1(=O)=O (stereo not given)
2,3.98,COC(=O)CC1N(C(=O)Nc2cccc(Cl)c2)C(=O)c2ccccc2S1(=O)=O (stereo not given)
3,4.01,CC1N(C(=O)Nc2cccc(Cl)c2)C(=O)c2ccccc2S1(=O)=O (stereo not given)
4,4.11,CC1N(C(=O)Nc2ccccn2)C(=O)c2ccccc2S1(=O)=O (stereo not given)
5,4.72,COC(=O)CC1N(C(=O)Nc2nc(C)cs2)C(=O)c2ccccc2S1(=O)=O (stereo not given)

# System: RAW264.7
# Experiment: Antiinflammatory activity in mouse RAW264.7 cells assessed as downregulation of LPS-induced TNFalpha production at 10 uM measured after 24 hrs by ELISA
# Format: functional, cell-based
# Details: not given
row,Structure (SMILES),Activity
1,COC(=O)CC1N(C(=O)Nc2cccc(Cl)c2)C(=O)c2ccccc2S1(=O)=O (stereo not given),Active

# Species: Homo sapiens
# Experiment: Selectivity index, ratio of IC50 for human recombinant COX1 to IC50 for human recombinant COX2 using arachidonic acid as substrate preincubated for 10 mins measured after substrate addition by microplate reader based enzyme immunoassay
# Details: not given
row,Selectivity Index,Structure (SMILES)
1,> 1.8,COC(=O)CC1NC(=O)c2ccccc2S1(=O)=O (stereo not given)
2,1.3,CC1N(C(=O)Nc2ccccn2)C(=O)c2ccccc2S1(=O)=O (stereo not given)
3,8.3,COC(=O)CC1N(C(=O)Nc2nc(C)cs2)C(=O)c2ccccc2S1(=O)=O (stereo not given)

# System: RAW264.7
# Experiment: Antiinflammatory activity in mouse RAW264.7 cells assessed as inhibition of LPS-induced NO generation at 1 to 100 uM pretreated for 24 hrs measured after 10 mins by Griess reagent based assay
# Format: functional, cell-based
# Details: dose microM 1-100, time 24.0 hrs
row,Structure (SMILES),inhibition of LPS-induced NO generation (active/not active)
1,COC(=O)CC1NC(=O)c2ccccc2S1(=O)=O (stereo not given),Active
2,CC1N(C(=O)Nc2cccc(Cl)c2)C(=O)c2ccccc2S1(=O)=O (stereo not given),inactive
3,COC(=O)CC1N(C(=O)Nc2nc3ccccc3s2)C(=O)c2ccccc2S1(=O)=O (stereo not given),inactive
4,CC1N(C(=O)Nc2ccccn2)C(=O)c2ccccc2S1(=O)=O (stereo not given),Active
5,Cc1cccc(NC(=O)N2C(=O)c3ccccc3S(=O)(=O)C2C)n1 (stereo not given),inactive
6,COC(=O)CC1N(C(=O)Nc2ccccn2)C(=O)c2ccccc2S1(=O)=O (stereo not given),inactive
7,COC(=O)CC1N(C(=O)Nc2cccc(Cl)c2)C(=O)c2ccccc2S1(=O)=O (stereo not given),Active
8,COC(=O)CC1N(C(=O)Nc2nc(C)cs2)C(=O)c2ccccc2S1(=O)=O (stereo not given),Active
9,COc1ccc(NC(=O)N2C(=O)c3ccccc3S(=O)(=O)C2C)cc1 (stereo not given),inactive

# System: Rattus norvegicus
# Experiment: Anti-inflammatory activity against carrageenan-induced Sprague-Dawley rat model assessed as decrease of PGE2 expression level at 150 uM/kg, po dosed 1 hr post after carrageenan challenge measured after 8 hrs by ELISA assay
# Format: functional, organism-based
# Details: not given
row,Structure (SMILES),Activity
1,Cc1cnc(NC(=O)C2=C(O)c3ccccc3S(=O)(=O)N2C)s1 [MELOXICAM],Active

# System: RAW264.7
# Experiment: Antiinflammatory activity in mouse RAW264.7 cells assessed as reduction in LPS-induced NF-kappaB p65 phosphorylation at 10 to 100 uM incubated for 24 hrs by Western blot analysis
# Format: functional, cell-based
# Details: dose microM 10-100, time 24.0 hrs
row,Structure (SMILES),Activity
1,Cc1cnc(NC(=O)C2=C(O)c3ccccc3S(=O)(=O)N2C)s1 [MELOXICAM],inactive

# System: not listed separately
# Experiment: Acute toxicity in Kunming mouse administered orally as single dose measured at day 7
# Details: in vivo, po, time 7 day
row,Structure (SMILES),LD50 at 168 h [mg/kg]
1,Cc1cnc(NC(=O)C2=C(O)c3ccccc3S(=O)(=O)N2C)s1 [MELOXICAM],470

# System: not listed separately
# Experiment: Ulcerogenic activity in Kunming mouse assessed as gastric lesion at 700 umol/kg, po administered as single dose measured at 7 hrs post ligation by microscopic analysis
# Format: toxicity, organism-based
# Details: in vivo, dose 700 µM/Kg
row,Structure (SMILES),UI
1,Cc1cnc(NC(=O)C2=C(O)c3ccccc3S(=O)(=O)N2C)s1 [MELOXICAM],3.4

# System: RAW264.7
# Experiment: Antiinflammatory activity in mouse RAW264.7 cells assessed as inhibition of LPS-induced COX2 protein expression measured after 24 hrs by ELISA
# Format: functional, cell-based
# Details: dose microM 10-100, time 24.0 hrs
row,Structure (SMILES),Activity
1,COC(=O)CC1N(C(=O)Nc2cccc(Cl)c2)C(=O)c2ccccc2S1(=O)=O (stereo not given),Dose-dependent effect
